The record followed here is patent US20230234967A1, “Fused Azole Heterocycles as AHR Antagonists” (Senda Biosciences, Inc., priority 2021, published 2023).

This assay has as its target T1, AHR (Homo sapiens, UniProt P35869).
T1 construct: other cell line with a DRE-luciferase reporter stably transfected; endogenous in cells; host or cells: Human HepG2 liver carcinoma AhR-Lucia reporter cells
T1 sequence (P35869 11-848): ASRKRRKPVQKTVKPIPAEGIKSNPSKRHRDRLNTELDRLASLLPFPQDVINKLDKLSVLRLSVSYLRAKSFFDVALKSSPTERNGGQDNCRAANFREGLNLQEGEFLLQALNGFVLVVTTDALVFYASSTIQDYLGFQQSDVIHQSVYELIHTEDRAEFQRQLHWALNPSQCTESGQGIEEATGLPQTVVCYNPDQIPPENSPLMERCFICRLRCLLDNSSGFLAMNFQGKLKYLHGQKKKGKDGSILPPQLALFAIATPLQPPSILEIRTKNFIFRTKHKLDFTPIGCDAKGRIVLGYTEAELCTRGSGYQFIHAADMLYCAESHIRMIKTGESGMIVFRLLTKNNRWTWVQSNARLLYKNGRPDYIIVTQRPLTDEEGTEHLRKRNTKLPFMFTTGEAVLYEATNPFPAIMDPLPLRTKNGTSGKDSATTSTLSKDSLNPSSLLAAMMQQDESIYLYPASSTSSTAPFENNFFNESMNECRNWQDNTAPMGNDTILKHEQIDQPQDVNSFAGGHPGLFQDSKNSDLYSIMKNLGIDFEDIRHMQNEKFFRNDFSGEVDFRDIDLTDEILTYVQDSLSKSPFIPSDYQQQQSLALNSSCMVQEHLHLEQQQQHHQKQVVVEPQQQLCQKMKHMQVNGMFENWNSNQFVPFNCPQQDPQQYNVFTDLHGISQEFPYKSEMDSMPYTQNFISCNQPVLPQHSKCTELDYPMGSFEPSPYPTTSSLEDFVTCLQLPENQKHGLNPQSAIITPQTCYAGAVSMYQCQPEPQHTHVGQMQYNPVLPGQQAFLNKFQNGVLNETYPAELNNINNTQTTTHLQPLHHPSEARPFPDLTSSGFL
Kind of assay: DRE-Luciferase Reporter Assay (HepG2 AhR-Lucia reporter cells). It counts as cell-based. Conditions: AHR activating ligand at its EC50, luciferase read-out, read-out: HEPG2 Luc IC50. The text has this: Example 27: DRE-Luciferase Reporter Assay
AHR binds to Dioxin Responsive Elements (DRE) upstream of genes that it activates. One measure of AHR activity is activation of a reporter gene, such as luciferase, downstream of one or multiple DRE elements. Luciferase activity will reflect activation and inhibition of AHR in the cells expressing his reporter. 20000 Human HepG2 liver carcinoma—AhR-Lucia reporter cells or Human HT29 colon adenocarcinoma—AhR reporter cells or other cell line with a DRE-luciferase reporter stably transfected were plated in Eagle's Minimal Essential Medium, 10% heat-inactivated FBS, 1×non-essential amino acids Pen-Strep (10,000 U/mL) and Normocin (100 ug/mL) in plates (96-well, 384-well or other plates) and incubated overnight at 37° C. in a CO2 incubator and treated with and without AhR antagonists at a log dilution starting at 100 uM.
After 1 hr that cells were plated an AHR activating ligand, such as TCDD, kynurenine, ITE (2-(1H-indole-3-ylcarbonyl)-4-thiazolecarboxylic methyl ester), VAF347, BNF (beta-naphthoflavone), FICZ (6-formylindolo(3,2-b) carbazole) or other AHR ligands at their specific EC50 concentration, were added to the cells with or without AHR antagonist.
Cells were incubated for 24 or 48 hours or another time point and then, supernatant was analyzed for determination of luciferase activity as a read-out of the AHR activation or inhibition. Luciferase was measured with the commercial kit QUANTI-Luc™ assay solution kit from Invivogen following the manufacturer's instructions.
The level of luciferase with only agonist ligand added was the maximum signal while the luciferase with […] was the minimum signal. IC50 values were determined as the concentration which inhibits half of the luciferase activity. “A” indicates an IC50 value less than 100 nM, “B” indicates an IC50 between 100 and 500 nM, “C” indicates an IC50 above 500 nM.
On the technique in general: In a reporter assay the amount or activity of a reporter protein is the signal.
As to `Cn1nccc1C(=O)Nc1nc2ccc(-c3ccccc3C(F)(F)F)nc2s1` [Product 1, 1-methyl-N-(5-(2-(trifluoromethyl)phenyl)thiazolo[5,4-b]pyridin-2-yl)-1H-pyrazole-5-carboxamide], the IC50 was > 500 nM. The value for `Cc1ccccc1-c1ccc2nc(NC(=O)c3ncnn3C)sc2n1` [Product 2, 1-Methyl-N-(5-(o-tolyl)thiazolo[5,4-b]pyridin-2-yl)-1H-1,2,4-triazole-5-carboxamide] was 100 to 500 nM; that for `Cn1nccc1C(=O)Nc1nc2ccc(-c3ccccc3C(F)F)nc2s1` [Product 3, N-(5-(2-(difluoromethyl)phenyl)thiazolo[5,4-b]pyridin-2-yl)-1-methyl-1H-pyrazole-5-carboxamide] was 100 to 500 nM. Regarding `COc1ccccc1-c1ccc2nc(NC(=O)c3ncnn3C)sc2n1` [Product 4, N-(5-(2-methoxyphenyl)thiazolo[5,4-b]pyridin-2-yl)-1-methyl-1H-1,2,4-triazole-5-carboxamide], the IC50 was in the range of 100 to 500 nM. Then `Cn1nccc1C(=O)Nc1nc2ccc(-c3cc(F)ccc3C(F)F)nc2s1` [Product 5, N-(5-(2-(difluoromethyl)-5-fluorophenyl)thiazolo[5,4-b]pyridin-2-yl)-1-methyl-1H-pyrazole-5-carboxamide], with > 500 nM. Then `Cn1ncnc1C(=O)Nc1nc2ccc(-c3ccccc3C(F)(F)F)nc2s1` [Product 6, 1-Methyl-N-(5-(2-(trifluoromethyl)phenyl)thiazolo[5,4-b]pyridin-2-yl)-1H-1,2,4-triazole-5-carboxamide], with > 500 nM. In the case of `Cn1ncnc1C(=O)Nc1nc2ccc(-c3ccccc3C(F)F)nc2s1` [Product 7, N-(5-(2-(difluoromethyl)phenyl)thiazolo[5,4-b]pyridin-2-yl)-1-methyl-1H-1,2,4-triazole-5-carboxamide], the IC50 was > 500 nM. For the molecule `Cc1ccccc1-c1ccc2nc(NC(=O)c3cccnc3)sc2n1` [Product 9, N-(5-(o-tolyl)thiazolo[5,4-b]pyridin-2-yl)nicotinamide], the IC50 was > 500 nM.

Consider `Cc1ccccc1-c1ccc2nc(NC(=O)c3ccncc3)sc2n1` [Product 10, N-(5-(o-tolyl)thiazolo[5,4-b]pyridin-2-yl)isonicotinamide], for which the IC50 was > 500 nM.

As for `Cn1ncnc1C(=O)Nc1nc2ccc(-c3cc(F)ccc3C(F)F)nc2s1` [Product 11, N-(5-(2-(difluoromethyl)-5-fluorophenyl)thiazolo[5,4-b]pyridin-2-yl)-1-methyl-1H-1,2,4-triazole-5-carboxamide], the IC50 was > 500 nM. As for `COc1ccccc1-c1ccc2nc(NC(=O)c3cccnc3)sc2n1` [Product 13, N-(5-(2-methoxyphenyl)thiazolo[5,4-b]pyridin-2-yl)nicotinamide], the IC50 lay within 100 to 500 nM. As to `COc1ccccc1-c1ccc2nc(NC(=O)c3ccncc3)sc2n1` [Product 14, N-(5-(2-methoxyphenyl)thiazolo[5,4-b]pyridin-2-yl)isonicotinamide], the IC50 is < 100 nM. On to `COc1cccc(-c2ccc3nc(NC(=O)c4ccnn4C)sc3n2)c1` [Product 16, N-(5-(3-methoxyphenyl)thiazolo[5,4-b]pyridin-2-yl)-1-methyl-1H-pyrazole-5-carboxamide], for which the IC50 was in the range of 100 to 500 nM.

In the case of `CN(C)C(=O)c1cccc(-c2ccc3nc(NC(=O)c4ccnn4C)sc3n2)c1` [Product 17, N-(5-(3-(dimethylcarbamoyl)phenyl)thiazolo[5,4-b]pyridin-2-yl)-1-methyl-1H-pyrazole-5-carboxamide], the IC50 is > 500 nM. Then `CN(C)c1cccc(-c2ccc3nc(NC(=O)c4ccnn4C)sc3n2)c1` [Product 19, N-(5-(3-(dimethylamino)phenyl)thiazolo[5,4-b]pyridin-2-yl)-1-methyl-1H-pyrazole-5-carboxamide], with > 500 nM.

As for `CN(C)c1ccc(-c2ccc3nc(NC(=O)c4ccnn4C)sc3n2)cc1` [Product 20, N-(5-(4-(dimethylamino)phenyl)thiazolo[5,4-b]pyridin-2-yl)-1-methyl-1H-pyrazole-5-carboxamide], the IC50 was < 100 nM.

As for `Cn1nccc1C(=O)Nc1nc2ccc(-c3ccccc3N3CCCC3)nc2s1` [Product 21, 1-Methyl-N-(5-(2-(pyrrolidin-1-yl)phenyl)thiazolo[5,4-b]pyridin-2-yl)-1H-pyrazole-5-carboxamide], the IC50 was > 500 nM. Consider `Cn1cc(-c2ccc3nc(NC(=O)c4ccnn4C)sc3n2)cn1` [Product 22, 1-Methyl-N-(5-(1-methyl-1H-pyrazol-4-yl)thiazolo[5,4-b]pyridin-2-yl)-1H-pyrazole-5-carboxamide], for which the IC50 lay within 100 to 500 nM. Take `CC(=O)Nc1nc2ccc(-c3ccccc3N(C)C)nc2s1` [Product 23, N-(5-(2-(dimethylamino)phenyl)thiazolo[5,4-b]pyridin-2-yl)acetamide]: the IC50 was > 500 nM. The value for `Cn1nccc1C(=O)Nc1nc2ccc(-c3ccccc3O)nc2s1` [Product 24, N-(5-(2-hydroxyphenyl)thiazolo[5,4-b]pyridin-2-yl)-1-methyl-1H-pyrazole-5-carboxamide] was > 500 nM; that for `Cn1nccc1C(=O)Nc1nc2ccc(-c3cccnc3)nc2s1` [Product 26, 1-Methyl-N-(5-(pyridin-3-yl)thiazolo[5,4-b]pyridin-2-yl)-1H-pyrazole-5-carboxamide] was 100 to 500 nM; that for `Cn1nccc1C(=O)Nc1nc2ccc(-c3ccccn3)nc2s1` [Product 27, 1-methyl-N-(5-(pyridin-2-yl)thiazolo[5,4-b]pyridin-2-yl)-1H-pyrazole-5-carboxamide] was 100 to 500 nM. The value for `Cn1nccc1C(=O)Nc1nc2ccc(-c3nccs3)nc2s1` [Product 28, 1-Methyl-N-(5-(thiazol-2-yl)thiazolo[5,4-b]pyridin-2-yl)-1H-pyrazole-5-carboxamide] was > 500 nM. For the molecule `Cc1nc(-c2ccc3nc(NC(=O)c4ccnn4C)sc3n2)sc1C` [Product 29, N-(5-(4,5-dimethylthiazol-2-yl)thiazolo[5,4-b]pyridin-2-yl)-1-methyl-1H-pyrazole-5-carboxamide], the IC50 lay in the range of 100 to 500 nM. Turning to `Cc1cnc(-c2ccc3nc(NC(=O)c4ccnn4C)sc3n2)s1` [Product 30, 1-Methyl-N-(5-(5-methylthiazol-2-yl)thiazolo[5,4-b]pyridin-2-yl)-1H-pyrazole-5-carboxamide], the IC50 lay in the range of 100 to 500 nM.

`Cc1ncsc1-c1ccc2nc(NC(=O)c3ccnn3C)sc2n1` [Product 31, 1-Methyl-N-(5-(4-methylthiazol-5-yl)thiazolo[5,4-b]pyridin-2-yl)-1H-pyrazole-5-carboxamide]: the IC50 lay in the range of 100 to 500 nM. Take `Cc1csc(-c2ccc3nc(NC(=O)c4ccnn4C)sc3n2)n1` [Product 32, 1-Methyl-N-(5-(4-methylthiazol-2-yl)thiazolo[5,4-b]pyridin-2-yl)-1H-pyrazole-5-carboxamide]: the IC50 was > 500 nM.

With `Cc1nc(C)c(-c2ccc3nc(NC(=O)c4ccnn4C)sc3n2)s1` [Product 33, N-(5-(2,4-dimethylthiazol-5-yl)thiazolo[5,4-b]pyridin-2-yl)-1-methyl-1H-pyrazole-5-carboxamide], the IC50 was in the range of 100 to 500 nM. Then `CC(C)C(=O)Nc1ccccc1-c1ccc2nc(NC(=O)c3ccnn3C)sc2n1` [Product 34, N-(5-(2-isobutyramidophenyl)thiazolo[5,4-b]pyridin-2-yl)-1-methyl-1H-pyrazole-5-carboxamide], with > 500 nM. The value for `CC(=O)Nc1ccccc1-c1ccc2nc(NC(=O)c3ccnn3C)sc2n1` [Product 35, N-(5-(2-acetamidophenyl)thiazolo[5,4-b]pyridin-2-yl)-1-methyl-1H-pyrazole-5-carboxamide] was > 500 nM.

Usually IC50 stands for the concentration that gives 50% inhibition.
